Measurements taken from the supplement of paper PMC10307832.

Assays:
Experiment in all cases: relative viability (nuclei count vs DMSO), 5 days (fraction); higher = more cells survive
[1] = compound: C1=CC(=CC=C1C2=CC(=C(S2)NC(=O)N)C(=O)N)F [TPCA-1] + Cc1cc(Nc2cc(N3CCN(C)CC3)nc(Sc3ccc(NC(=O)C4CC4)cc3)n2)n[nH]1 [Tozasertib] (partner 0.1 µM)
How it was run: (§1)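 Nuclei were stained with Hoechst during a one-step fixation (final 0.05% Triton X-100, 1% formaldehyde, 1 ug/ml Hoechst) carried out 5 days after dosing, then counted on 4× images. The cells, lung cancer lines in 1536-well plates, had been dosed by pin tool the day after seeding with one drug alone or a fixed anchor-drug dose plus five library-drug doses (not always all listed) in √10 steps. Relative viability is the nuclei count in treated wells divided by that in vehicle wells, and each value is the median of duplicate plates.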

[2] = compound: C[C@]12O[C@H](C[C@]1(O)CO)n1c3ccccc3c3c4c(c5c6ccccc6n2c5c31)CNC4=O [Lestaurtinib] + Nc1nc2[nH]cc(CCc3ccc(C(=O)N[C@@H](CCC(=O)O)C(=O)O)cc3)c2c(=O)[nH]1 [Pemetrexed] (partner 0.2 µM)
How it was run: as §1

[3] = compound: C[C@]12O[C@H](C[C@]1(O)CO)n1c3ccccc3c3c4c(c5c6ccccc6n2c5c31)CNC4=O [Lestaurtinib] + CC1(C)CCC(c2ccc(Cl)cc2)=C(CN2CCN(c3ccc(C(=O)NS(=O)(=O)c4ccc(N[C@H](CCN5CCOCC5)CSc5ccccc5)c(S(=O)(=O)C(F)(F)F)c4)cc3)CC2)C1 [Navitoclax] (partner 0.5 µM)
How it was run: as §1

[4] = compound: C1=CC(=CC=C1C2=CC(=C(S2)NC(=O)N)C(=O)N)F [TPCA-1] + CC(C)C[C@H](NC(=O)[C@H](Cc1ccccc1)NC(=O)c1cnccn1)B(O)O [Bortezomib] (partner 0.002 µM)
How it was run: as §1

Cell Line | relative viability ([1]; first compound 0.04 µM) | relative viability ([1]; first compound 0.1265 µM) | relative viability ([1]; first compound 0.4 µM) | relative viability ([1]; first compound 1.265 µM) | relative viability ([1]; first compound 4 µM) | relative viability ([2]; first compound 0.005 µM) | relative viability ([2]; first compound 0.01581 µM) | relative viability ([2]; first compound 0.05 µM) | relative viability ([2]; first compound 0.1581 µM) | relative viability ([2]; first compound 0.5 µM) | relative viability ([3]; first compound 0.005 µM) | relative viability ([3]; first compound 0.01581 µM) | relative viability ([3]; first compound 0.05 µM) | relative viability ([3]; first compound 0.1581 µM) | relative viability ([3]; first compound 0.5 µM) | relative viability ([4]; first compound 0.04 µM) | relative viability ([4]; first compound 0.1265 µM) | relative viability ([4]; first compound 0.4 µM) | relative viability ([4]; first compound 1.265 µM) | relative viability ([4]; first compound 4 µM)
NCI-H2170 | 0.731 | 0.644 | 0.718 | 0.66 | 0.387 | 0.258 | 0.259 | 0.259 | 0.261 | 0.175 | 0.378 | 0.393 | 0.368 | 0.442 | 0.263 |  |  |  |  | 
HCC-366 | 0.107 | 0.135 | 0.0742 | 0.0631 | 0.0314 | 0.158 | 0.168 | 0.157 | 0.163 | 0.104 | 1.1 | 1.11 | 0.977 | 1.56 | 0.581 | 1.07 | 0.94 | 1.13 | 0.92 | 0.647
NCI-H2347 | 0.527 | 0.52 | 0.454 | 0.599 | 0.336 | 0.443 | 0.43 | 0.432 | 0.44 | 0.404 | 0.835 | 0.87 | 0.575 | 0.526 | 0.42 | 0.945 |  | 0.894 | 0.662 | 1.16
COR-L 105 | 0.398 | 0.355 | 0.309 | 0.349 | 0.335 | 1.06 | 1.19 | 1.14 | 0.743 | 0.631 | 0.803 | 0.746 | 0.595 | 0.643 | 0.322 | 0.846 | 0.808 | 0.982 | 0.516 | 0.333
201T | 0.958 | 0.924 | 1.05 | 0.976 | 0.636 | 0.34 | 0.342 | 0.317 | 0.279 | 0.251 | 1.21 | 1.22 | 1.29 | 1.28 | 1.18 | 1.12 | 1.1 | 1.19 | 1.12 | 1.12
NCI-H2126 | 0.877 | 0.768 | 0.886 | 0.829 | 0.338 | 0.757 | 0.685 | 0.66 | 0.666 | 0.476 | 0.924 | 0.914 | 0.854 | 0.632 | 0.75 | 1.15 | 1.04 | 1.07 | 1.06 | 1.09
LC-2-ad | 0.514 | 0.41 | 0.469 | 0.459 | 0.315 | 0.258 | 0.277 | 0.252 | 0.258 | 0.186 | 0.344 | 0.402 | 0.201 | 0.137 | 0.107 | 1.11 | 1.01 | 0.94 | 1.04 | 0.371
NCI-H2085 | 0.863 | 0.72 | 0.746 | 0.735 | 0.479 | 0.861 | 0.877 | 0.915 | 0.858 | 0.78 | 1.15 | 1.36 | 1.1 | 1.27 | 0.979 | 1.13 | 1.06 | 1.04 | 0.965 | 1.01
